From ChEMBL document CHEMBL1759869, “Discovery of spirocyclic sulfonamides as potent Akt inhibitors with exquisite selectivity against PKA” (Bioorg Med Chem Lett, 2011)
pIC50: −log10 of the molar value.

Tests used:
[1] = target: T1, RAC-alpha serine/threonine-protein kinase (Homo sapiens, UniProt P31749); experiment: Inhibition of Akt1
[2] = Inhibition of PKA
[3] = Selectivity ratio of IC50 for PKA to IC50 for Akt1
[4] = target: T1, RAC-alpha serine/threonine-protein kinase; experiment: Inhibition of AKT1-mediated PRAS40 phosphorylation in human LNCaP cells; format: cell-based

T1 sequence (P31749 whole entry): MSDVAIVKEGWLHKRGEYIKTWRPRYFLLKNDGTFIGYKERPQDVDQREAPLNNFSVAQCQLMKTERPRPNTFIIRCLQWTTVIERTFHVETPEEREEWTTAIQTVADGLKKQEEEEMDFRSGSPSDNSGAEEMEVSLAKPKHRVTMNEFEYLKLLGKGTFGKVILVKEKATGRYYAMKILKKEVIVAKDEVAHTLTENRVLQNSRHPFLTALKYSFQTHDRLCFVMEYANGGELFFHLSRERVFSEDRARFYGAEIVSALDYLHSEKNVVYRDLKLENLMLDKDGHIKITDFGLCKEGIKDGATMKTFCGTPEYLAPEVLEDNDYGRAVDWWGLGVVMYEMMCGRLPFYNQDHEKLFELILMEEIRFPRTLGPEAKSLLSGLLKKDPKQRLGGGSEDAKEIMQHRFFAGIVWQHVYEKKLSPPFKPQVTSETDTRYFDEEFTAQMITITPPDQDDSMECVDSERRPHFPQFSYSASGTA

| SMILES | pIC50 [1] | pIC50 [2] | Ratio IC50 [3] | pIC50 [4] |
| --- | --- | --- | --- | --- |
| Nc1ncnc(N2CC[C@@]3(CCCN(C[C@H](O)CNS(=O)(=O)c4ccccc4Cl)C3)C2)c1C1CC1 | 8.05 | 5.08 | 920 | 5.72 |
| Cc1cc(F)ccc1S(=O)(=O)NC[C@@H](O)CN1CCC[C@@]2(CCN(c3ncnc(N)c3C3CC3)C2)C1 | 8.10 | 5.11 | 970 | 5.66 |
| Cc1ccncc1S(=O)(=O)NC[C@@H](O)CN1CCC[C@@]2(CCN(c3ncnc(N)c3C3CC3)C2)C1 | 5.96 | < 5.00 | > 9 | – |
| Nc1ncnc(N2CC[C@@]3(CCCN(C[C@H](O)CNS(=O)(=O)c4ccccc4F)C3)C2)c1C1CC1 | 7.09 | < 5.00 | > 120 | 4.85 |
| Cc1ccc(S(=O)(=O)NC[C@@H](O)CN2CCC[C@@]3(CCN(c4ncnc(N)c4C4CC4)C3)C2)c(C)c1 | 6.80 | < 5.00 | > 63 | 4.74 |
| CCOCCN(C[C@@H](O)CN1CCCC2(CCN(c3ncnc4n[nH]c(C)c34)C2)C1)S(=O)(=O)c1c(C)cccc1C (some centres undefined) | 7.68 | – | – | 6.51 |
| Cc1cccc(C)c1S(=O)(=O)N1CCC[C@H]1[C@H](O)CN1CCC[C@@]2(CCN(c3ncnc(N)c3C3CC3)C2)C1 | 6.60 | < 5.00 | > 40 | 4.89 |
| Nc1ncnc(N2CC[C@@]3(CCCN(C[C@H](O)CNS(=O)(=O)c4ccccc4Br)C3)C2)c1C1CC1 | 7.77 | 5.03 | 550 | 5.70 |

Further molecules by rising pIC50 [2], results first:

| pIC50 [1] | pIC50 [2] | Ratio IC50 [3] | pIC50 [4] | SMILES |
| --- | --- | --- | --- | --- |
| 8.05 | 5.30 | 560 | 5.92 | Cc1ccccc1S(=O)(=O)NC[C@@H](O)CN1CCC[C@@]2(CCN(c3ncnc(N)c3C3CC3)C2)C1 |
| – | 5.33 | – | 5.62 | CCOCCN(C[C@@H](O)CN1CCCC2(CCN(c3ncnc4ccccc34)C2)C1)S(=O)(=O)c1c(C)cccc1C (some centres undefined) |
| 7.72 | 5.33 | 250 | 5.62 | Cc1cccc(C)c1S(=O)(=O)N1CCC[C@@H]1[C@@H](O)CN1CCC[C@@]2(CCN(c3ncnc(N)c3C3CC3)C2)C1 |
| 8.05 | 5.41 | 430 | 6.16 | Cc1cccc(C)c1S(=O)(=O)N1CCC[C@H]1[C@@H](O)CN1CCC[C@@]2(CCN(c3ncnc(N)c3C3CC3)C2)C1 |
| 7.92 | 5.47 | 280 | 6.13 | CCOCCN(C[C@@H](O)CN1CCCC2(CCN(c3ncncc3C3CC3)C2)C1)S(=O)(=O)c1c(C)cccc1C (some centres undefined) |
| 8.40 | 5.47 | 850 | 6.05 | Cc1cccc(C)c1S(=O)(=O)NC[C@@H](O)CN1CCC[C@@]2(CCN(c3ncnc(N)c3C3CC3)C2)C1 |
| 7.92 | 5.66 | 180 | 6.33 | CCOCCN(C[C@@H](O)CN1CCCC2(CCN(c3ncnc(N)c3C3CC3)C2)C1)S(=O)(=O)c1c(C)cccc1C (mixture of isomers) |
| 8.52 | 5.72 | 630 | 6.31 | Cc1noc(C)c1S(=O)(=O)NC[C@@H](O)CN1CCC[C@@]2(CCN(c3ncnc(N)c3C3CC3)C2)C1 |
| – | 6.25 | 27 | – | CCOCCN(C[C@@H](O)CN1CCCC2(CCN(c3ncnc4[nH]nc(C)c34)C2)C1)S(=O)(=O)c1c(C)cccc1C (some centres undefined) |
| 7.39 | 6.68 | 5 | 5.92 | CCOCCN(C[C@@H](O)CN1CCCC2(CCN(c3ncnc4[nH]cc(C)c34)CC2)C1)S(=O)(=O)c1c(C)cccc1C |
| 8.70 | 7.17 | 28 | 6.74 | CCOCCN(C[C@@H](O)CN1CCCC2(CCN(c3ncnc4[nH]cc(C)c34)C2)C1)S(=O)(=O)c1c(C)cccc1C (some centres undefined) |
